Here are results for four compounds from PMC12845261, “Design, Synthesis, and Biological Evaluation of N-Acyl-Hydrazone-Linked Quinazolinone Derivatives with Antioxidant, Antimicrobial, and Anticancer Potential” (Pharmaceuticals, 2025).

The subject of data set [1] is A431 (human epidermoid carcinoma). The data set can be described thus: Cytotoxicity, MTT assay. The conditions noted are these: for viability at 50 µM / IC50: Homo sapiens; for viability at 50 µM: A-431, 50 µM, compared to the control, read-out: Cell viability; for IC50: A-431, 24 h, tested range 3.125 to 50 µM. Format: cell-based. The protocol:
(§1) For the cytotoxicity screening of the N-acyl-hydrazone derivatives, three cell lines were employed: HT-29 (human colorectal adenocarcinoma), A431 (human epidermoid carcinoma), and VERO (non-tumoral African green monkey kidney epithelial cells). All cell lines were obtained from the American Type Culture Collection (ATCC, Manassas, VA, USA), and maintained in appropriate culture media as follows: HT-29 and A431 cells were cultured in Dulbecco’s Modified Eagle Medium (DMEM), while VERO cells were cultured in Minimum Essential Medium (MEM). Both culture media were supplemented with 10% fetal bovine serum (FBS) and 1% penicillin-streptomycin mix, to formulate the complete culture medium. All cell lines were incubated at 37 °C in a humidified atmosphere containing 5% CO2. […] For the cytotoxicity screening, cells were seeded into sterile 96-well plates at an initial density of 1 × 10^4 cells/well and allowed to adhere for 24 h. Subsequently, cells were treated with increasing concentrations (3.125 to 50 µM) of compounds 1a–1f and 2 for 24 h. In parallel, 5-fluorouracil (5-FU, Sigma Aldrich, St. Louis, MO, USA) was included as a reference drug and tested over the same concentration range under identical experimental conditions. […] For the experimental control, culture medium was refreshed at the time of treatment application. […] Louis, MO, USA). Briefly, the culture media were discarded from each well and replaced with a fresh solution of MTT (1 mg/mL). Plates were incubated for 4 h at 37 °C, and the resulting formazan crystals were solubilized with isopropanol. The absorbance was measured at 550 nm using the FlexStation III multimodal reader (Molecular Devices, San Jose, CA, USA). All experiments were performed in triplicate and repeated in three independent assays. Cell viability was calculated as a percentage relative to the untreated control using the formula Cell Viability (%) = (Abs treated/Abs control) × 100. Data were processed using GraphPad Prism 6.0 and presented as mean ± standard deviation (SD). Statistical analysis was performed using one-way analysis of variance (ANOVA) followed by Dunnett’s post hoc test for comparison with the untreated control group.

The test system of data set [2] is HT-29 (human colorectal adenocarcinoma). The data set is described as follows: Cytotoxicity, MTT assay. Type of data set: cell-based. The conditions noted are these: 24 h; for Cell viability: at corresponding concentrations (comparison with 5-FU), concentration not named; for IC50: tested range 3.125 to 50 µM; for Cytotoxic effect (in words): 3.125 to 50 µM. On the procedure:
as §1
On the technique in general: Tetrazolium assays rely on reduction of a dye to a coloured formazan, in cell work by metabolically active cells.

Data set [3] can be described thus: Total antioxidant capacity (TAC), DPPH method. The following applies: 30 min, 517 nm, compound stock 1 mg/mL in methanol, reference ascorbic acid TAC = 100%. On the procedure: The total antioxidant capacity (TAC) was evaluated using diphenyl-1-picrylhydrazyl free radical (DPPH) method. The TAC value was determined in relation to the antioxidant capacity of the reference (ascorbic acid, TAC = 100%). […] The maximum value was recorded for 1c (~45%), followed by 1f and 1a (~43%), while the minimum for 1e (~19%).
In this study, the TAC values were obtained using the most-known DPPH method, in which the intense violet colour of the free radical solution is decreasing. Stock solutions of compounds 1a–1f and 2 were prepared in absolute methanol at a concentration of 1 mg/mL. A stock solution of 2,2-diphenyl-1-picrylhydrazyl free radical was obtained in the same solvent, at a concentration of 2 × 10^−4 M. To 1.8 mL of DPPH solution was added 0.2 mL of each solution of the compounds 1a–1f and 2 and the mixture was left in the dark for 30 min, followed by measurements of the absorbance at 517 nm. The following equation was used to calculate TAC: TAC%=Abs0 min−Abs30 min/Abs0min·100 where Abs0 min refers to the initial absorbance of the DPPH free radical solution, and Abs 30 min refers to the absorbance of the solution of DPPH and the added compound after 30 min. Ascorbic acid was used as a reference.

The nature of data set [4]: Qualitative solubility in solvents. Type of data set: physicochemical. The protocol:
The 2–5 mL reaction vials were loaded with a magnetic stirrer, 1 mmol of each reactant, acetohydrazide 2 and benzaldehydes, 4–4.5 mL of anhydrous ethanol and 2 drops of glacial acetic acid. Reaction conditions included 5 min of pre-stirring, followed by 40 min of irradiation at 100 °C, with the absorbance level set to “high”. The vials were left overnight in a refrigerator. The precipitates formed were filtered under vacuum, washed with cold ethanol and dried at room temperature. Thin-layer chromatography was performed to analyze and monitor the reaction. The compounds were confirmed by spectroscopic methods (FT-IR, ^1H-NMR and ^13C-NMR spectroscopy and mass spectrometry) and characterized by melting points, solubility and retention factors (Rf).

The test system of data set [5] is P. aeruginosa ATCC 27853. The data set is described as follows: Microbial adhesion, crystal violet (MICMA). The following applies: DMSO control 1.25. Format: cell-based. On the procedure:
(§2) For the evaluation of antimicrobial activity, the following reference strains were used: S. aureus ATCC 25923, E. faecalis ATCC 29212, E. coli ATCC 25922, P. aeruginosa ATCC 27853 and C. albicans ATCC 10231.
(§3) Following quantitative analysis of antimicrobial activity, microbial adhesion was evaluated after methanol fixation and violet crystal staining (0.1%). The absorbance of the adhered biomass colored with violet crystal and resuspended in 33% acetic acid was measured at 490 nm.

Data set [6] relates to S. aureus ATCC 25923. The data set is described as follows: Microbial adhesion, crystal violet (MICMA). The following applies: DMSO control 5. Format: cell-based. The protocol:
as §2, §3

In data set [7] the test system is P. aeruginosa ATCC 27853. The data set is described as follows: Qualitative antimicrobial activity, adapted Kirby-Bauer (inhibition zone). Type of data set: cell-based. The conditions noted are these: 10 μL of 10 mg/mL DMSO stock, mean ± SD. The protocol: (§4) For the evaluation of antimicrobial activity, the following reference strains were used: S. aureus ATCC 25923, E. faecalis ATCC 29212, E. coli ATCC 25922, P. aeruginosa ATCC 27853 and C. albicans ATCC 10231. The microbial suspensions were prepared at a density of 1.5 × 10^8 CFU/mL, corresponding to the McFarland 0.5 nephelometric standard. These suspensions were obtained from 18–24 h cultures developed on solid media (Mueller-Hinton for bacteria, Sabouraud for yeast). Antimicrobial activity was assessed using an adapted Kirby-Bauer method according to CLSI (Clinical and Laboratory Standards Institute). In addition to the 10 mg/mL stock solutions prepared in DMSO for each compound, a solvent control was used. Each stock solution (10 μL) was distributed in spot on the medium inoculated with the interest strain. After measuring the diameter of the inhibition zone (IZD) around the spot (mm), the results were expressed as the mean ± standard deviation (SD) for each compound tested in duplicate.

Data set [8] has as its system S. aureus ATCC 25923. The description is as above. Format: cell-based. The following applies: 10 μL of 10 mg/mL DMSO stock, mean ± SD. The protocol: as §4
For data set [9], the system named is C. albicans ATCC 10231. The data set is described as above. Format: cell-based. The following applies: 10 μL of 10 mg/mL DMSO stock, mean ± SD. The protocol: as §4
Data set [10] deals with E. coli ATCC 25922. The data set is described as above. The following applies: 10 μL of 10 mg/mL DMSO stock, mean ± SD. Type of data set: cell-based. On the procedure:
as §4

Data set [11] deals with E. faecalis ATCC 29212. The data set is described as above. Format: cell-based. The conditions noted are these: 10 μL of 10 mg/mL DMSO stock, mean ± SD. The protocol: as §4

SMILES strings stand for the structures. Read-outs that look alike come from different tables or passages of the source.

For the compound `Cc1nc2ccccc2c(=O)n1CC(=O)N/N=C/c1cc(Br)ccc1O` [Compound 1a, N′-[(E)-(5-bromo-2-hydroxyphenyl)methylidene]-2-(2-methyl-4-oxoquinazolin-3(4H)-yl)acetohydrazide], the viability at 50 µM is approximately 60% in [1] (24 h) and approximately 50% in [2] (Homo sapiens, 50 µM, relative to untreated control, read-out: Cell viability). Besides, the Cell viability result in data set [2] is recorded as “below 50%”. Besides, the IC50 in data set [2] (Homo sapiens, read-out: IC50) was approximately 50 µM. Moreover, the “TAC (%)” value in data set [3] is on record as 42.7%. For the same compound, the Solubility result in data set [4] (DMF) was “soluble”; in [4] (DMSO), “soluble”; in data set [4] (acetone), “soluble”; in [4] (methanol), “slightly soluble”; in [4] (water), “insoluble”. The figures for the “MICMA” value in data set [5] and in [6] were 0.625 mg/mL and 2.5 mg/mL, respectively. Moreover, the “IZD (mm)” value in [7], in [8], in data set [9], in data set [10] and in data set [11] was 0.00 ± 0.00 mm each time.

Turning to `Cc1nc2ccccc2c(=O)n1CC(=O)N/N=C/c1cc(Br)cc(Br)c1O` [Compound 1b, N′-[(E)-(3,5-bromo-2-hydroxyphenyl)methylidene]-2-(2-methyl-4-oxoquinazolin-3(4H)-yl)acetohydrazide], the viability at 50 µM in data set [1] (24 h) was approximately 50%. Moreover, in [1], the IC50 was approximately 50 µM. For the same compound, the Cell viability result in data set [2] is given as “below 50%”. The “Reduction of cell viability” value in [2] (at 50 µM and 25 µM, compared to the control) is “approximately 50%”. Moreover, in data set [3], the “TAC (%)” value came to 38.9%. In addition, the Solubility result in data set [4] (2-propanol) is listed as “slightly soluble”; in [4] (DMF) it was “soluble”; in [4] (DMSO) it was “soluble”; in data set [4] (acetone), “soluble”; in data set [4] (methanol), “slightly soluble”; in [4] (water) it was “insoluble”. The “MICMA” value in [5] and in [6] was 1.25 mg/mL each time. The “IZD (mm)” value in data set [7] is recorded as 0.00 ± 0.00 mm; in data set [8] it was 12.33 ± 0.58 mm; in data set [9], 0.00 ± 0.00 mm; in [10], 0.00 ± 0.00 mm; in data set [11], 0.00 ± 0.00 mm.

Consider `COc1cccc(/C=N/NC(=O)Cn2c(C)nc3ccccc3c2=O)c1O` [Compound 1c, N′-[(E)-(2-hydroxy-3-methoxyphenyl)methylidene]-2-(2-methyl-4-oxoquinazolin-3(4H)-yl)acetohydrazide], for which the viability at 50 µM in data set [1] (24 h) is approximately 50%. Moreover, the half-inhibitory concentration (IC50) in data set [1] was approximately 50 µM; in data set [2] it was “did not produce a viability drop sufficient to determine an IC50 value”. The “Cytotoxic effect (in words)” value in [2] is recorded as “potent inhibitory effects at all concentrations tested”. Moreover, in [3], the “TAC (%)” value came to 45.1%. Further, the Solubility result is reported as “soluble” in [4] (DMF); “soluble” in data set [4] (DMSO); “soluble” in data set [4] (acetone); “slightly soluble” in data set [4] (methanol); “insoluble” in data set [4] (water). Further, the “MICMA” value is 1.25 mg/mL in data set [5] and 2.5 mg/mL in [6]. Further, the “IZD (mm)” value in [7] is given as 0.00 ± 0.00 mm; in data set [8], 7.67 ± 0.58 mm; in [9] it was 6.67 ± 0.58 mm; in [10] it was 0.00 ± 0.00 mm; in data set [11], 7.67 ± 0.58 mm.

As for `Cc1nc2ccccc2c(=O)n1CC(=O)NN` [Compound 2, 2-(2-methyl-4-oxoquinazolin-3(4H)-yl)acetohydrazide], the “Cytotoxic effect (in words)” value in data set [1] (3.125 to 50 µM, 24 h) was “no cytotoxic activity”; in [2], “overall increase in cell viability at all tested concentrations”. The “TAC (%)” value in [3] turned out to be 19.7%. Moreover, the “MICMA” value in [6] amounted to 2.5 mg/mL. Moreover, the “IZD (mm)” value came out at 0.00 ± 0.00 mm in [7]; 0.00 ± 0.00 mm in data set [8]; 6.33 ± 1.53 mm in [9]; 0.00 ± 0.00 mm in data set [10]; 0.00 ± 0.00 mm in [11].

As usually defined, the viability is a read-out of living cells in per cent, often relative to untreated cells. As usually defined, the IC50 is the midpoint of a concentration-inhibition curve.
